The values below come from US11021445B2, “Carboxylic acid derivative as AT2R receptor antagonist” (SHANDONG DANHONG PHARMACEUTICAL CO., LTD., priority 2017, dated 2021).

One series deals with T1, hAT2 (Homo sapiens, UniProt P50052).
T1 construct: expressed in transfected cells; host or cells: HEK-293
T1 sequence (P50052 1-363): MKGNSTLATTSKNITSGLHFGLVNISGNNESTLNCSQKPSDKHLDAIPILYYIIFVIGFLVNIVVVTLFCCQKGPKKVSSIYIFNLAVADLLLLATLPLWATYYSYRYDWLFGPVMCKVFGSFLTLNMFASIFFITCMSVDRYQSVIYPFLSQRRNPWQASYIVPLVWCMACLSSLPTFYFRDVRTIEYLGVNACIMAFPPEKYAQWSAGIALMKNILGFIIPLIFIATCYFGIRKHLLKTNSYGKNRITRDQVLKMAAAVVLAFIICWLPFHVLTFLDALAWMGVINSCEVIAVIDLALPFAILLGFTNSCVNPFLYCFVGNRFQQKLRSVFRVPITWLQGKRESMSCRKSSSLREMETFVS
Put plainly: hAT2 receptor binding assay (SPA, [125I]-Sar1-Ile8-Angiotensin II). The conditions noted are these: membrane of HEK-293 cells overexpressing hAT2; 0.1 nM 125I ligand. How it is done:
hAT2 Receptor Binding Assay
Protease inhibitor mixture, free of ethylenediaminetetraacetic acid-1 tablets (Roche #11873580001) (50 mL plus one piece)
Experimental Methods and Steps
The reference ligand PD123319 and the test compound were prepared into a 750 μM mother liquor by DMSO; each compound was prepared into a solution of 8 concentration gradients (up to a concentration of 750 μM, 3-fold dilution) and 10 μl of the solution was added to a master of a 384-well plate per well.
The SPA beads were prepared to a mother liquor of 25 mg/ml by the buffer;
The isotope [^125I]-Sar1-Ile8-Angiotensin II was prepared into a mother liquor of 50 μCi/ml by adding pure water.
The cell membrane overexpressing hAT2 in HEK-293 cells was prepared to 2.5 mg/ml by the buffer.
200 nl of compound was aspirated from the mother plate with ECHO to each well of the 384-well test plate. ZPE was added to an equal volume of DMSO. (The concentration of the test compound in the reaction was diluted by 250 times).
A 50 ml membrane solution containing 10 μg/μl of magnetic beads and 0.05 μg/μl of AT2 was prepared, placed on a shaker and uniformly mixed. (100 rpm, 30 min). The test plate finally contained an hAT2 membrane with 1.25 μg/well and magnetic beads with 250 μg/well.
A 3.2 ml membrane liquid mixture was added to the compound test plate by using a Multidrop Combi pipette, and 25 μl was added to each well.
A 0.2 nM solution was prepared with 50 μCi/ml of isotope [^125I]-Sar1-Ile8-Angiotensin II mother liquor by the buffer, and 0.2 nM of ^125I was added to the compound test plate with a Multidrop Combi pipette. A volume of 25 μl was added to each well. The final concentration of ^125I isotope is 0.1 nM.
The prepared test plate was placed on a shaker overnight at room temperature at 200 rpm.
The test plate was centrifuged with a centrifuge at 1200 rpm for 1 min.
The centrifuged test plate was read with Microbeta.

Series [1] in a line: Determination of kinetic solubility. It counts as physicochemical. The settings on record: buffer solution pH 7.4, aqueous buffer, kinetic from dmso stock, pH 7.4, 24 hours at room temperature, theoretical maximum 200 μM. How it is done:
The to-be-tested compound was dissolved in DMSO to prepare a 10 mmol/L stock solution. 980 μL of dissolution medium was pipetted into a 2 mL screw-capped glass vial by using a pipette (Eppendorf Research Company). 20 μL of the stock solution of each test compound and the QC sample were added to a buffer solution corresponding to a kinetic detection solution of pH 7.4. The final concentrations of the test compound and DMSO solution were 200 μM and 2%, respectively. The cover of the medicine bottle was screwed. The theoretical maximum concentration is 200 μM. The mixture was shaken at 880 rpm for 24 hours at room temperature. The vial was centrifuged for 30 minutes at 13,000 rpm. 200 μL of the supernatant was added to a 96-well plate by using a digital pipette. The solubility of the test compound was determined by high performance liquid chromatography, and the experimental results are shown in Table 2.

Series [2] can be described thus: Plasma protein binding rate (PPB) test, equilibrium dialysis. The series is classed as in vitro ADME. The conditions noted are these: human, 37°C. How it is done: (§1) In vitro protein binding rates of 0.2 μM, 2 μM, 10 μM of test compounds with Sprague-Dawley rats, beagle dogs, human plasma were determined by equilibrium dialysis.
(§2) The experiment will use a 96-well equilibrium dialysis plate (HTDialysis device) to determine the plasma protein binding rate of the to-be-tested compound and the control compounds.
(§3) Prior to the start of the experiment, the dialysis membrane was pretreated according to the instructions for use and the dialysis unit was assembled as required.
(§4) Blank plasma was taken from CD-1 mice, Sprague-Dawley rats, Beagle dogs, cynomolgus monkeys and humans (an anticoagulant is EDTA-K2, which is a commercial product purchased, or is collected and prepared by the Drug Evaluation Department of Wuxi AppTech, and is stored in a refrigerator below −60° C. before use). A certain volume of the to-be-tested compound or the control compound working solution was added to prepare plasma samples of the compound to be tested at a concentration of 0.2, 2, 10 μM and plasma samples of the control compound at a concentration of 2 μM (n=1). The organic phase content was ≤1%. First, a certain volume of a plasma sample containing the to-be-tested compound and the control compound was taken out into the sample receiving plate as a sample at zero time (T0 sample, n=3); secondly, a plasma sample containing the to-be-tested compound and the control compound was added to one side of the dialysis membrane (plasma end, n=3), and a certain volume of dialysis buffer (buffer end, n=3) was added to the other side of the dialysis membrane; then the dialysis plate was placed in a humidified incubator with 5% CO2 for incubation for 4 hours at 37±1° C.
(§5) After the incubation, a certain volume of the dialyzed buffer sample (F sample) and the dialyzed plasma sample (T sample) were transferred to the sample receiving plate, and all samples were subjected to protein precipitation for LC/MS/MS analysis. And the dissociation rate of the compound (% Unbound) was calculated by the following formula: % Unbound=100*[F]/[T], % Bound=100−% Unbound. Wherein, % Unbound is the dissociation rate of the compound; % Bound is the binding rate of the compound; [F] is the concentration of the compound at the buffer end of the dialysis plate; [T] is the concentration of the compound at the plasma end of the dialysis plate; and the experimental results are shown in Table 7.

Test in series [3]: as above
It counts as in vitro ADME, Sprague-Dawley rats. The conditions noted are these: Sprague-Dawley, rat, 37°C, read-out: Plasma Protein Binding (%) SD Rat Plasma (converted). How it is done: as §1, §2, §3, §4, §5

pIC50: −log10 of the molar value. Read-outs that look alike come from different tables or passages of the source. A value given as a limit tells only on which side of the number the result lay.

Take `N#Cc1ccc2c(c1OCc1ccccc1)C[C@@H](C(=O)O)N(C(=O)[C@H](OC1CCCC1)c1ccccc1)C2` [Compound 111]: the pIC50 (commonly the IC50 on a negative log10 scale, so that one unit is a factor of ten) at hAT2 is 7.80. The solubility (as a rule, how much of the substance goes into solution per volume) at 24 h in series [1] was more than 200 µM. The fraction unbound at 4 h in series [2] and in series [3] was 0.002 throughout.
